In patent US7151168B2, “Ecdysone receptors and methods for their use” (Pioneer Hi-Bred International, Inc., priority 1998, dated 2006):
Where “and” joins values, the source holds several entries; their conditions need not be identical. Equal entries are not always repeated.

What was measured:
Format in all cases: cell-based, Ostrinia nubilalis
[1] = system: C1::LexA::ecdysone fusion protein (plasmid PHP10956; ligand-binding domain of the Ecdysone receptor)
From the text: (§1) To examine the effect of the Ecdysone and USP receptors on promoter-driven expression, a transient transactivation assay was developed using a cell suspension culture derived from maize embryos. (See also, U.S. Pat. No. 5,886,244.) A reporter plasmid, designated PHP11545, was constructed in the pSP72 vector and contained 8 LexA operators, a minimal fragment of the CaMV-59 constitutive promoter, the Omega leader sequence, Adh intron 1, the coding sequence for firefly luciferase, and the PinII terminator sequences.
(§2) Two DNA constructs encoding effector proteins were generated. A chimeric Ecdysone receptor construct designated PHP10956 was generated. PHP10956 contains the Nopaline synthase (NOS) promoter, the Omega leader sequence, Adh1 intron, and the potato protease inhibitor II (PinII) termination sequences cloned into a pUC vector. A fragment encoding a fusion between the maize C1 transactivation domain, the LexA DNA binding domain, and the ligand-binding domain of the Ecdysone receptor was cloned downstream of the intron.
(§3) These constructs were introduced into embryogenic suspension cells by microprojectile bombardment as described by Unger et al. (1993) The Plant Cell 5:831–841. Plasmid DNA encoding effector and reporter sequences was mixed with 50 μl (15 mg/ml) of 1.0 μm tungsten microprojectiles. DNA was precipitated by addition of 50 μl 2.5 M CaCl2 and 20 μl 0.1M spermidine. Microprojectiles and precipitated DNA were centrifuged to a pellet and the supernatant was removed. The pellet was washed by sonication in the presence of 250 μl absolute ethanol, centrifuged and ethanol removed. Sixty μl of fresh absolute ethanol was added and this mixture sonicated to disperse the pellet. Ten μl aliquots of this microprojectile-DNA mixture were placed on each macrocarrier and bombarded into maize suspension cells using a helium-driven microprojectile gun, PDS-1000 (1100 psi rupture disk pressure). […]

[2] = system: USP receptor (plasmid PHP10967) and C1::LexA::ecdysone fusion protein (plasmid PHP10956); experiment: Transient transactivation assay, luciferase reporter PHP11545, maize embryogenic suspension cells, chimeric EcR plus USP (NosCLO/NosUSP)
From the text: as §1, §2
A DNA construction containing the USP coding sequences was generated and designated PHP10967. PHP10967 contains the Nos promoter, the Omega leader sequence, Adh1 intron, and the PinII terminator sequences cloned into the pUC vector. The nucleic acid sequence encoding the USP coding region was inserted downstream of the intron.
as §3, with “pellet.” for “pellet. Ten μl aliquots of this microprojectile-DNA mixture were placed on each macrocarrier and bombarded into maize suspension cells using a helium-driven microprojectile gun, PDS-1000 (1100 psi rupture disk pressure).”

[3] = system: chimeric Ecdysone receptor: VP16 activation domain, Gal4 DNA binding domain, ligand-binding domain of the Ecdysone receptor (PHP10513); experiment: Stable transactivation assay, GAL4-responsive luciferase reporter PHP1654, leaf punches of T0 maize plants, PHP10513; details: 10 μM RH5992 in H2O, 16 hours, individual T0 plant, 20 μl of 200 μl extract
Procedure: (§4) To further examine the effect of the Ecdysone receptors on promoter-driven expression, a stable transactivation assay was performed using a chimeric Ecdysone receptor. DNA constructs were generated for the expression of both effector and reporter DNA sequences.
(§5) A reporter plasmid, designated PHP1654, was constructed in the pSP72 vector and contained 5 GAL4 responsive elements, a minimal CaMV-59 constitutive promoter, the Omega' leader sequence, Adh intron 1, the coding sequence for firefly Luciferase, and the PinII terminator sequences.
The plasmid designated PHP10513 also contains the Nopaline synthase (NOS) promoter, the Omegá leader sequence, Adh1 intron, 355 promoter, PAT gene, and the potato protease inhibitor II (PinII) termination sequences cloned into a pUC vector. However, the fragment encoding the chimeric receptor immediately downstream of the intron, comprises a fusion between the VP16 activation domain, the Gal4 DNA binding domain, and the ligand-binding domain of the Ecdysone receptor.
Immature embryos approximately 1.5 to 2.0 mm long from the Hi-II genotype (Armstrong and Phillips (1988) Crop Sci. 28:363–369) were bombarded with the PHP1654 reporter plasmid and either PHP10513 or PHP10512. As noted above, a selectable marker gene, PAT, was contained on PHP10513 and PHP10512. The PAT gene confers resistance to the herbicide Bialophos. (Wohlleben et al. (1988) Gene 70:25–37.)
Embryos were bombarded using the protocols described in Tomes et al. (1994) Plant Cell, Tissue, and Organ culture, Fundamental Methods 197–213. Specifically, the Hi-II immature embryos were bombarded and cultured on selection medium as described by Songstad et al. 1993 Agronomy Abstracts 183. Plant regeneration from transgenic calli was performed according to the protocol of Armstrong and Phillips (1988) Crop Sci 28:363–369, except that bialaphos (3 mg/l) was added to each of the regeneration media. Plants were established in the greenhouse.
The transactivation of the luciferase reporter sequence by a chimeric Ecdysone receptor was assayed using standard protocols. […]

[4] = system: chimeric Ecdysone receptor: maize C1 transactivation domain, Gal4 DNA binding domain, ligand-binding domain of the Ecdysone receptor (PHP10512); experiment: Stable transactivation assay, GAL4-responsive luciferase reporter PHP1654, leaf punches of T0 maize plants, PHP10512; details: 10 μM RH5992 in H2O, 16 hours; plasmid PHP10512, event 78; individual T0 plant; 20 μl of 200 μl extract
Procedure: as §4, §5
Two DNA constructions encoding chimeric Ecdysone receptor proteins were generated. The chimeric Ecdysone receptor construct designated PHP10512 contains the Nopaline synthase (NOS) promoter, the Omegá leader sequence, Adh1 intron, 355 promoter, PAT gene and the potato protease inhibitor II (PinII) termination sequences cloned into a pUC vector. A fragment encoding a fusion between the maize C1 transactivation domain, the Gal4 DNA binding domain, and the ligand-binding domain of the Ecdysone receptor was cloned downstream of the intron.
Immature embryos approximately 1.5 to 2.0 mm long from the Hi-II genotype (Armstrong and Phillips (1988) Crop Sci. 28:363–369) were bombarded with the PHP1654 reporter plasmid and either PHP10513 or PHP10512. As noted above, a selectable marker gene, PAT, was contained on PHP10513 and PHP10512. […]

SMILES: CCc1ccc(C(=O)NN(C(=O)c2cc(C)cc(C)c2)C(C)(C)C)cc1 [RH5992, 3,5-dimethylbenzoic acid 1—1 (1,1-dimethylethyl)-2(4-ethylbenzoyl)hydrazide]
- Average Light Units (luciferase expression) ([1]; 10 μM RH5992, NosCLO only, effector dose 0.02 μg, 16 to 18 hours at 26° C., maize suspension cells): 153613 Light Units
- Fold Induction (luciferase) ([1]; 10 μM RH5992 vs no ligand, NosCLO only, 0.02 μg): 8.4x
- Transactivation of the LexA responsive luciferase reporter gene (in words) ([1]; in the presence of the RH5992 ligand, only C1::LexA::ecdysone fusion protein (PHP10956), no USP): resulted in the transactivation of the LexA responsive luciferase reporter gene
- Average Light Units (luciferase expression) ([2]; 10 μM RH5992, NosCLO/NosUSP, 0.02 μg each, 16 to 18 hours at 26° C., maize suspension cells): 201808 Light Units
- Fold Induction (luciferase) ([2]; 10 μM RH5992 vs no ligand, NosCLO/NosUSP, 0.02 μg each): 53x
- Transactivation of the LexA responsive luciferase reporter (PHP11545) ([2]; in the presence of the RH5992 ligand, USP (PHP10967) plus C1::LexA::ecdysone fusion (PHP10956)): 53 fold
- RH5992 treated (Light Units), luciferase activity ([3]; plasmid PH10513, event 30): 38093 Light Units and 26394 Light Units and 24632 Light Units and 33636 Light Units and 28213 Light Units and 22137 Light Units and 105341 Light Units and 44639 Light Units and 49279 Light Units and 83241 Light Units and 61320 Light Units and 130618 Light Units and 95166 Light Units and 35641 Light Units and 37955 Light Units and 38507 Light Units and 37855 Light Units and 42346 Light Units
- RH5992 treated (Light Units), luciferase activity ([3]; plasmid PHP10513, event 44): 605147 Light Units and 528950 Light Units and 303021 Light Units and 573842 Light Units and 417072 Light Units and 511220 Light Units and 290095 Light Units
- RH5992 treated (Light Units), luciferase activity ([3]; plasmid PHP10513, event 117): 90037 Light Units and 40005 Light Units and 149594 Light Units and 75379 Light Units and 49243 Light Units and 114913 Light Units and 57607 Light Units and 46075 Light Units
- RH5992 treated (Light Units), luciferase activity [4]: 3771 Light Units and 1819 Light Units and 7742 Light Units and 1027 Light Units and 9742 Light Units and 2486 Light Units and 8494 Light Units and 3988 Light Units and 9265 Light Units and 6198 Light Units and 6293 Light Units and 1045 Light Units and 8354 Light Units and 4720 Light Units
